Measurements as given in patent publication US9815864B2, “Substituted nucleosides, nucleotides and analogs thereof” (Alios BioPharma, Inc., priority 2013, dated 2017).
pIC50: −log10 of the molar value.

molecular target: Norovirus polymerase (NoVpol, genotype II) (Lordsdale virus, UniProt P54634); assay: biochemical; conditions: not given
Sequence (P54634 1190-1699 limits assumed): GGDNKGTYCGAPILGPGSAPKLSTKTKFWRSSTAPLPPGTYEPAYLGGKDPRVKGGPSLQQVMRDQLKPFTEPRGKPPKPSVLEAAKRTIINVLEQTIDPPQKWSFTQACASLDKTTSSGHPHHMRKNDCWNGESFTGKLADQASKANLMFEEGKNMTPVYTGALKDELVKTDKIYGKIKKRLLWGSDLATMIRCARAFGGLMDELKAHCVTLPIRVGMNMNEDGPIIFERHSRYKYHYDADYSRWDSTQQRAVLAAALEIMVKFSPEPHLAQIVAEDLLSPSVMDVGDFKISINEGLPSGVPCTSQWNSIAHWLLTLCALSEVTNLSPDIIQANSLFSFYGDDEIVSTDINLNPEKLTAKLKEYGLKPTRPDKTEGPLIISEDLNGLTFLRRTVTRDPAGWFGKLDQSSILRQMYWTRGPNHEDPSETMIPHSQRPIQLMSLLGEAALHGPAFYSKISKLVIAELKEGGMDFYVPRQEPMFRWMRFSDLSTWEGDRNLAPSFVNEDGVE

Compound | pIC50
CC[C@]1(COP(=O)(O)OP(=O)(O)OP(=O)(O)O)O[C@@H](n2ccc(=O)[nH]c2=O)[C@H](F)[C@@H]1O [Compound 37a] | 5.00 to 6.00
Nc1ccn([C@@H]2O[C@](CF)(COP(=O)(O)OP(=O)(O)OP(=O)(O)O)[C@@H](O)[C@H]2F)c(=O)n1 [Compound 56c] | > 6.00
C[C@@]1(O)[C@H](O)[C@@](CF)(CO[P@](O)(=S)OP(=O)(O)OP(=O)(O)O)O[C@H]1n1ccc(=O)[nH]c1=O [Compound 171a] | > 6.00
C[C@]1(O)C(n2ccc(=O)[nH]c2=O)O[C@H](COP(=O)(O)OP(=O)(O)OP(=O)(O)O)[C@H]1O (some centres unmarked) [Compound 260a] | 5.00 to 6.00
C#C[C@@]1(O)[C@H](O)[C@@H](COP(O)(=S)OP(=O)(O)OP(=O)(O)O)O[C@H]1n1ccc(=O)[nH]c1=O (some centres unmarked) [Compound 286a] | 5.00 to 6.00

same assay, conditions: 50 nM recombinant enzyme, 2.5 hours at 30° C.; read-out: IC50

pIC50 | Compound
5.00 to 6.00 | CCC[C@]1(CO)O[C@@H](n2ccc(N)nc2=O)[C@H](F)[C@@H]1O [Compound 21a]
> 6.00 | C=C[C@]1(COP(=O)(O)OP(=O)(O)OP(=O)(O)O)O[C@@H](n2cnc3c(=O)[nH]c(N)nc32)[C@H](F)[C@@H]1O [Compound 34a]
> 6.00 | C#C[C@]1(COP(=O)(O)OP(=O)(O)OP(=O)(O)O)O[C@@H](n2cnc3c(=O)[nH]c(N)nc32)[C@H](F)[C@@H]1O [Compound 34b]
> 6.00 | N#C[C@]1(COP(=O)(O)OP(=O)(O)OP(=O)(O)O)O[C@@H](n2cnc3c(=O)[nH]c(N)nc32)[C@H](F)[C@@H]1O [Compound 34e]
5.00 to 6.00 | C=C[C@]1(COP(=O)(O)OP(=O)(O)OP(=O)(O)O)O[C@@H](n2ccc(N)nc2=O)[C@H](F)[C@@H]1O [Compound 36b]
5.00 to 6.00 | C#C[C@]1(COP(=O)(O)OP(=O)(O)OP(=O)(O)O)O[C@@H](n2ccc(N)nc2=O)[C@H](F)[C@@H]1O [Compound 36c]
5.00 to 6.00 | CO[C@]1(COP(=O)(O)OP(=O)(O)OP(=O)(O)O)O[C@@H](n2ccc(N)nc2=O)[C@H](F)[C@@H]1O [Compound 36d]
5.00 to 6.00 | O=c1ccn([C@@H]2O[C@](CCl)(COP(=O)(O)OP(=O)(O)OP(=O)(O)O)[C@@H](O)[C@H]2F)c(=O)[nH]1 [Compound 56a]
5.00 to 6.00 | Cc1cn([C@@H]2O[C@](CCl)(COP(=O)(O)OP(=O)(O)OP(=O)(O)O)[C@@H](O)[C@H]2F)c(=O)nc1N [Compound 97d]
5.00 to 6.00 | Nc1nc(=O)n([C@@H]2O[C@](CCl)(COP(=O)(O)OP(=O)(O)OP(=O)(O)O)[C@@H](O)[C@H]2F)cc1F [Compound 97g]
5.00 to 6.00 | O=c1[nH]cnc2c1ncn2[C@@H]1O[C@](CCl)(COP(=O)(O)OP(=O)(O)OP(=O)(O)O)[C@@H](O)[C@H]1F [Compound 98b]
> 6.00 | Nc1ncnc2c1ncn2[C@@H]1O[C@](CF)(COP(=O)(O)OP(=O)(O)OP(=O)(O)O)[C@@H](O)[C@H]1F [Compound 98c]
> 6.00 | O=c1ccn([C@@H]2O[C@](CF)(COP(=O)(O)OP(=O)(O)OP(=O)(O)O)[C@@H](O)[C@H]2F)c(=O)[nH]1 [Compound 111a]
> 6.00 | [N-]=[N+]=NC[C@]1(COP(=O)(O)OP(=O)(O)OP(=O)(O)O)O[C@@H](n2ccc(=O)[nH]c2=O)[C@H](F)[C@@H]1O [Compound 114a]
5.00 to 6.00 | [N-]=[N+]=NC[C@]1(COP(=O)(O)OP(=O)(O)OP(=O)(O)O)O[C@@H](n2ccc(N)nc2=O)[C@H](F)[C@@H]1O [Compound 115a]
5.00 to 6.00 | Nc1nc2c(ncn2[C@@H]2O[C@](CCl)(COP(=O)(O)OP(=O)(O)OP(=O)(O)O)[C@@H](O)[C@H]2F)c(=O)[nH]1 [Compound 116a]
5.00 to 6.00 | C[C@]1(O)[C@H](n2ccc(=O)[nH]c2=O)O[C@](F)(COP(=O)(O)OP(=O)(O)OP(=O)(O)O)[C@H]1O [Compound 122a]
5.00 to 6.00 | [N-]=[N+]=NC[C@]1(COP(=O)(O)OP(=O)(O)OP(=O)(O)O)O[C@@H](n2cnc3c(N)ncnc32)[C@H](F)[C@@H]1O [Compound 212a]
> 6.00 | C[C@]1(F)[C@H](n2cnc3c(=O)[nH]c(N)nc32)O[C@](F)(COP(=O)(O)OP(=O)(O)OP(=O)(O)O)[C@H]1O [Compound 214a]
> 6.00 | C[C@@]1(O)[C@H](O)[C@@](CF)(COP(=O)(O)OP(=O)(O)OP(=O)(O)O)O[C@H]1n1cnc2c(=O)[nH]c(N)nc21 [Compound 216a]
> 6.00 | C[C@]1(O)[C@H](n2ccc(=O)[nH]c2=O)O[C@](C)(COP(=O)(O)OP(=O)(O)OP(=O)(O)O)[C@H]1O [Compound 217a]
> 6.00 | C#C[C@@]1(O)[C@H](O)[C@@](CF)(COP(=O)(O)OP(=O)(O)OP(=O)(O)O)O[C@H]1n1ccc(=O)[nH]c1=O [Compound 219a]
5.00 to 6.00 | C=C[C@]1(COP(=O)(O)OP(=O)(O)OP(=O)(O)O)O[C@@H](n2ccc(=O)[nH]c2=O)C(F)(F)[C@@H]1O [Compound 221a]
4.00 to 5.00 | O=c1ccn([C@@H]2O[C@](CCl)(COP(=O)(O)OP(=O)(O)OP(=O)(O)O)[C@@H](O)C2(F)F)c(=O)[nH]1 [Compound 222a]
5.00 to 6.00 | C=C[C@]1(COP(=O)(O)OP(=O)(O)OP(=O)(O)O)O[C@@H](n2ccc(N)nc2=O)C(F)(F)[C@@H]1O [Compound 224a]
5.00 to 6.00 | Nc1ccn([C@@H]2O[C@](CF)(COP(=O)(O)OP(=O)(O)OP(=O)(O)O)[C@@H](O)C2(F)F)c(=O)n1 [Compound 227a]
> 6.00 | C#C[C@@]1(O)[C@H](O)[C@@](CF)(COP(=O)(O)OP(=O)(O)OP(=O)(O)O)O[C@H]1n1cnc2c(N)ncnc21 [Compound 230a]

pIC50 | Compound
> 6.00 | C[C@]1(O)[C@H](n2cnc3c(=O)[nH]c(N)nc32)O[C@](F)(COP(=O)(O)OP(=O)(O)OP(=O)(O)O)[C@H]1F [Compound 232a]
> 6.00 | C#C[C@]1(O)[C@H](n2cnc3c(=O)[nH]c(N)nc32)O[C@](F)(COP(=O)(O)OP(=O)(O)OP(=O)(O)O)[C@H]1F [Compound 233a]
> 6.00 | C#C[C@]1(O)[C@H](n2cnc3c(=O)[nH]c(N)nc32)O[C@](F)(COP(=O)(O)OP(=O)(O)OP(=O)(O)O)[C@H]1O [Compound 236a]
> 6.00 | C#C[C@]1(F)[C@H](n2cnc3c(=O)[nH]c(N)nc32)O[C@](F)(COP(=O)(O)OP(=O)(O)OP(=O)(O)O)[C@H]1O [Compound 237a]
> 6.00 | C[C@]1(O)[C@H](n2ccc(N)nc2=O)O[C@](F)(COP(=O)(O)OP(=O)(O)OP(=O)(O)O)[C@H]1O [Compound 238a]
5.00 to 6.00 | C[C@]1(Cl)[C@H](n2ccc(=O)[nH]c2=O)O[C@](F)(COP(=O)(O)OP(=O)(O)OP(=O)(O)O)[C@H]1O [Compound 239a]
4.00 to 5.00 | C[C@]1(F)[C@H](n2ccc(=O)[nH]c2=O)O[C@](F)(COP(=O)(O)OP(=O)(O)OP(=O)(O)O)[C@H]1O [Compound 242a]
5.00 to 6.00 | C[C@@]1(Cl)[C@H](O)[C@@H](COP(=O)(O)OP(=O)(O)OP(=O)(O)O)O[C@H]1n1ccc(N)nc1=O [Compound 262a]
> 6.00 | [N-]=[N+]=N[C@]1(COP(=O)(O)OP(=O)(O)OP(=O)(O)O)O[C@@H](n2ccc(=O)[nH]c2=O)[C@H](O)[C@@H]1O [Compound 264a]
> 6.00 | [N-]=[N+]=N[C@]1(COP(=O)(O)OP(=O)(O)OP(=O)(O)O)O[C@@H](n2ccc(=O)[nH]c2=O)[C@H](F)[C@@H]1O [Compound 267a]
> 6.00 | [N-]=[N+]=N[C@]1(COP(=O)(O)OP(=O)(O)OP(=O)(O)O)O[C@@H](n2cnc3c(=O)[nH]c(N)nc32)[C@H](O)[C@@H]1O [Compound 268a]
> 6.00 | [N-]=[N+]=N[C@]1(COP(=O)(O)OP(=O)(O)OP(=O)(O)O)O[C@@H](n2cnc3c(=O)[nH]c(N)nc32)[C@H](F)[C@@H]1O [Compound 269a]
> 6.00 | [N-]=[N+]=N[C@]1(COP(=O)(O)OP(=O)(O)OP(=O)(O)O)O[C@@H](n2ccc(N)nc2=O)[C@@H](O)[C@@H]1O [Compound 270a]
5.00 to 6.00 | Nc1ccn([C@@H]2O[C@@](COP(=O)(O)OP(=O)(O)OP(=O)(O)O)(CC(F)F)[C@@H](O)[C@H]2F)c(=O)n1 [Compound 272a]
> 6.00 | C#C[C@@]1(O)[C@H](O)[C@@H](COP(=O)(O)OP(=O)(O)OP(=O)(O)O)O[C@H]1n1cnc2c(N)ncnc21 [Compound 289a]
> 6.00 | C#C[C@@]1(O)[C@H](O)[C@@H](COP(=O)(O)OP(=O)(O)OP(=O)(O)O)O[C@H]1n1cnc2c(=O)[nH]c(N)nc21 [Compound 290a]
> 6.00 | C#C[C@@]1(O)[C@H](O)[C@@H](COP(=O)(O)OP(=O)(O)OP(=O)(O)O)O[C@H]1n1ccc2c(N)ncnc21 [Compound 292a]
5.00 to 6.00 | C[C@]1(N=[N+]=[N-])[C@H](n2ccc(N)nc2=O)O[C@](F)(COP(=O)(O)OP(=O)(O)OP(=O)(O)O)[C@H]1O [Compound 302a]
4.00 to 5.00 | C[C@]1(N)[C@H](n2ccc(N)nc2=O)O[C@](F)(COP(=O)(O)OP(=O)(O)OP(=O)(O)O)[C@H]1O [Compound 303a]
4.00 to 5.00 | C[C@@]1(Cl)[C@H](O)[C@@](CF)(COP(=O)(O)OP(=O)(O)OP(=O)(O)O)O[C@H]1n1ccc(=O)[nH]c1=O [Compound 306a]
5.00 to 6.00 | C#C[C@]1(F)[C@H](n2ccc(=O)[nH]c2=O)O[C@](F)(COP(=O)(O)OP(=O)(O)OP(=O)(O)O)[C@H]1O [Compound 313a]
5.00 to 6.00 | Nc1ccn([C@@H]2O[C@@](COP(=O)(O)OP(=O)(O)OP(=O)(O)O)(C(F)F)[C@@H](O)[C@H]2F)c(=O)n1 [Compound 329a]
5.00 to 6.00 | C=C[C@]1(O)[C@H](n2ccc(=O)[nH]c2=O)O[C@](F)(COP(=O)(O)OP(=O)(O)OP(=O)(O)O)[C@H]1O [Compound 330a]
> 6.00 | N#C[C@@]1(n2ccc(=O)[nH]c2=O)O[C@](CF)(COP(=O)(O)OP(=O)(O)OP(=O)(O)O)[C@@H](O)[C@H]1O [Compound 331a]
> 6.00 | N#C[C@@]1(n2ccc(N)nc2=O)O[C@](CF)(COP(=O)(O)OP(=O)(O)OP(=O)(O)O)[C@@H](O)[C@H]1O [Compound 332a]
5.00 to 6.00 | C[C@]1(O)[C@H](n2cnc3c(N)ncnc32)O[C@](F)(COP(=O)(O)OP(=O)(O)OP(=O)(O)O)[C@H]1O [Compound 333a]
> 6.00 | C[C@]1(COP(=O)(O)OP(=O)(O)OP(=O)(O)O)O[C@@H](n2cnc3c(=O)[nH]c(N)nc32)[C@H](O)[C@@H]1O [Compound 334a]
